Results reported in patent US20230122911A1, “FORMULATIONS OF ENZALUTAMIDE” (Astellas Pharma Inc., priority 2012, published 2023).

Assay: Glass transition temperature (Tg) by modulated DSC
Type: physicochemical
Protocol: Below Tg, an amorphous material is said to be in a “glassy” state in which molecular mobility is severely restricted. […] Glass transition temperatures Tg were determined for amorphous enzalutamide, and for spray-dried dispersions (SDDs) of enzalutamide with HPMCAS-M or PVP-VA64, at <5% and 75% relative humidity (RH) Tgs were determined by modulated differential scanning calorimetry (mDSC), utilizing the following protocol. Samples (about 5 mg) were equilibrated at the desired RH overnight in an environmental chamber at ambient temperature. The samples were then loaded into pans and sealed inside the environmental chamber. The samples were analyzed on a Q1000 mDSC (TA Instruments, New Castle, Delaware). Samples were typically scanned over the temperature range of -40° C. to 180° C., at a scan rate of 2.5° C./min, and a modulation rate of ±1.5° C./min. […] The Tg was calculated based on half height.
HME dispersions were produced using dry-powder blends of enzalutamide and HPMCAS-M or PVP VA at three different drug loadings: 25%A, 40%A, and 60%A. Using a volumetric powder feeder, the blends were fed at a controlled rate to a 7.5 \-mm MP&R™ Model ME7.5 Twin-Screw Extruder (MP&R, Hackensack, NJ). […] Table 11.1 presents the extrusion temperature, the crystallinity of the dispersion (amorphous is desired), and the glass transition temperature (Tg) measured by DSC.

For CNC(=O)c1ccc(N2C(=S)N(c3ccc(C#N)c(C(F)(F)F)c3)C(=O)C2(C)C)cc1F [Amorphous enzalutamide, 4-{3-[4-cyano-3-(trifluoromethyl)phenyl]-5,5-dimethyl-4-oxo-2-sulfanylideneimidazolidin-1-yl}-2-fluoro-N-methylbenzamide], the Tg (75% RH) was 64.0 °C and the Tg (<5% RH) was 88.5 °C.
